This note sets out measurements from patent US20190022039A1, “COMPOUND HAVING ENHANCING ACTIVITY FOR GLUCAGON-LIKE PEPTIDE-1 RECEPTOR ACTIONS” (AJINOMOTO CO., INC., priority 2016, published 2019).

This assay addresses T1, human GLP-1R (Homo sapiens, UniProt P43220).
T1 construct: expressed in transfected cells; host or cells: PEAK RAPID-derived Gα15-trans48 LD stably expressing cells (PRG48), transiently transfected with Lipofectamine 2000
The experiment in a line: GLP-1 receptor in vitro calcium assay (intracellular free calcium concentration change induced via GLP-1 receptor). The conditions noted are these: for EC50: PRG48 cells transfected with human GLP-1R, compound added with 250 pM GLP-1, Ca2+ response ΔF/F, read-out: Ca EC50 value; for GLP-1 receptor action enhancing activity (vs BETP): intensity compared to BETP, activity of BETP as 1. The format is cell-based. How it is done: The supernatant was removed by centrifugation (1,200 rpm, 3 min), and the cells were suspended at 4×10^6 cells/mL in 5% FBS DMEM/Ham's F-12. 1.0 mL thereof was seeded in a 15 cm dish and cultured (37° C., 5% CO2) overnight. The next day, the medium of the cultured PRG48 cells was replaced with 5% FBS DMEM/Ham's F-12 medium (30 mL), human GLP-1R gene mixture solution (GLP-1R/pc.DNA3.1(+) 60 μg) prepared using 6.0 mL of Opti-MEM (invitrogen) and 120 μL of Lipofectamin 2000 (invitrogen) was slowly added to the cells, and cultured (37° C., 5% CO2) for 6 hr to introduce the gene. […] The cells were counted, suspended at 0.5×10^6 cells/mL in 5% FBS DMEM/Ham's F-12 medium, and seeded in each well of D-Lysine coat 96 well plate (BD Bioscience) at 7.0×10^4 cells. After static adhesion at room temperature for 1 hr, the cells were cultured overnight (37° C., 5% CO2). The medium in the Cultured 96 well was entirely discarded, 150 μL of intracellular calcium measurement staining solution Calcium assay kit Express (Molecular Device) diluted 80-fold with Assay buffer (20 mM HEPES, 146 mM NaCl, 1 mM MgSO4, 1.39 mM glucose, 1 mM CaCl2, 2.5 mM Probenecid, 0.05% Casein Enzymatic Hydrolysate) was added, and the mixture was stood at 37° C. for 30 min, and then at room temperature for 45 min to perform staining. After staining, 250 pM GLP-1 and the compound were added and Ca^2+ response was observed by using FDSSμCELL (Hamamatsu Photonics K.K.). Each evaluation compound was dissolved in DMSO, further diluted with Assay buffer and used.
For evaluation, the fluorescence values (Ex480:Em540) before and after addition were measured, and changes in the intracellular free calcium concentration produced via GLP-1R receptor by the addition were quantitatively examined. For the measurement and analysis of the fluorescence values, a soft (FDSS7000EX) attached to the FDSSμCELL was used, and ΔF/F value ((maximum fluorescence value after stimulation−minimum fluorescence value after stimulation)/fluorescence value before stimulation) was calculated. Using the obtained ΔF/F values, EC50 value was calculated by Prism5.

T1 sequence (P43220 24-463): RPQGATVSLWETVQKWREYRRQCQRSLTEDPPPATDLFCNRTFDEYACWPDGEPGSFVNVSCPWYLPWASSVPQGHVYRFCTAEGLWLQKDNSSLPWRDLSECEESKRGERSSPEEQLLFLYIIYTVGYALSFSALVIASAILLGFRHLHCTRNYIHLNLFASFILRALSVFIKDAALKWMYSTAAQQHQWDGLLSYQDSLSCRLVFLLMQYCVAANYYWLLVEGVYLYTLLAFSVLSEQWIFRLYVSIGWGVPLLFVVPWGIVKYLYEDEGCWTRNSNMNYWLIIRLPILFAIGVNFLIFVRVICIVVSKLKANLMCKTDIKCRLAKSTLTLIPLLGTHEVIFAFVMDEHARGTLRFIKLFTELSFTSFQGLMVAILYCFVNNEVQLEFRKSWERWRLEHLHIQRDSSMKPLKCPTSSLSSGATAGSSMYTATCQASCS

One may read the EC50 as the concentration giving half of the maximal effect. In the case of `Cc1ccc(S(=O)(=O)Nc2cccc(NC(=O)N[C@@H](Cc3ccccc3)C(=O)OC(C)(C)C)c2)cc1` [Compound 79], the EC50 is 1500 nM and the “GLP-1 receptor action enhancing activity (vs BETP)” value amounted to 17.
The corresponding values for `Cc1ccccc1S(=O)(=O)Nc1ccc(NC(=O)N[C@@H](Cc2ccccc2)C(=O)OC(C)(C)C)cc1` [Compound 78] are 1700 nM and 15.
In the case of `Cc1ccc(S(=O)(=O)Nc2ccc(NC(=O)N[C@H](Cc3ccccc3)C(=O)NCC(C)(C)C)cc2)cc1` [Compound 4], the 50% effective concentration (EC50) amounted to 1900 nM and the “GLP-1 receptor action enhancing activity (vs BETP)” value was determined as 13.
`Cc1ccc(S(=O)(=O)Nc2ccc(NC(=O)N[C@H](Cc3ccccc3)c3nc(C(C)(C)C)no3)cc2)cc1` [Compound 70]: the EC50 was 1300 nM and the “GLP-1 receptor action enhancing activity (vs BETP)” value was 20.
The corresponding values for `Cc1cccc(S(=O)(=O)Nc2ccc(NC(=O)N[C@@H](Cc3ccccc3)C(=O)OC(C)(C)C)cc2)c1` [Compound 77] are 1600 nM and 16.
The corresponding values for `CC(C)CCCC(C)NC(=O)[C@@H](CC1CCCCC1)NC(=O)N(CC(=O)O)c1ccc(NS(=O)(=O)c2ccc(C(C)(C)C)cc2)cc1` (stereo partly drawn) [Compound 108, 2-(4-[(4-tert-butylphenyl)sulfonylamino]-N-{[(1R)-1-(cyclohexylmethyl)-2-(1,5-dimethylhexylamino)-2-oxo-ethyl]carbamoyl}anilino)acetic acid] are 1.5 nM and 17107.
The corresponding values for `Cc1ccc(S(=O)(=O)Nc2ccc(NC(=O)N[C@H](Cc3ccccc3)C(=O)N[C@@H](C)c3ccccc3)cc2)cc1` [Compound 31] are 480 nM and 52.
`Cc1ccc(S(=O)(=O)Nc2ccc(NC(=O)N[C@H](Cc3ccccc3)c3nnc(S)n3-c3ccccc3)cc2)cc1` [Compound 90]: the 50% effective concentration (EC50) was 1400 nM and the “GLP-1 receptor action enhancing activity (vs BETP)” value is 18.
On to `CC(C)c1ccc(S(=O)(=O)Nc2ccc(NC(=O)N[C@@H](Cc3ccccc3)C(=O)OC(C)(C)C)cc2)cc1` [Compound 72], for which the EC50 is 680 nM and the “GLP-1 receptor action enhancing activity (vs BETP)” value is listed as 37.
The corresponding values for `Cc1ccc(S(=O)(=O)Nc2ccc(NC(=O)N[C@@H](Cc3ccccc3)C(=O)OC(C)(C)C)cc2)cc1` [Compound 63] are 1900 nM and 13.
The corresponding values for `Cc1ccc(S(=O)(=O)Nc2ccc(NC(=O)N[C@H](Cc3ccccc3)C(=O)NC3CCCCC3)cc2)cc1` [Compound 3] are 1700 nM and 15.
The corresponding values for `CCCCCCNC(=O)[C@@H](CC(C)C)NC(=O)Nc1ccc(NS(=O)(=O)c2ccc(C)cc2)cc1` [Compound 11] are 490 nM and 52.
With `Cc1ccc(S(=O)(=O)Nc2ccc(NC(=O)N[C@H](Cc3c[nH]c4ccccc34)C(=O)NCCC3CCCCC3)cc2)cc1` [Compound 47], the half-maximal effective concentration (EC50) was 120 nM and the “GLP-1 receptor action enhancing activity (vs BETP)” value is listed as 208.
In the case of `CC(C)CCCC(C)NC(=O)[C@@H](CC1CCCCC1)NC(=O)Nc1ccc(NS(=O)(=O)c2ccc(N3CCOCC3)nc2)cc1` (stereo partly drawn) [Compound 104, (2R)-3-cyclohexyl-N-(1,5-dimethylhexyl)-2-({4-[(6-morpholino-3-pyridyl)sulfonylamino]phenyl}carbamoylamino)propanamide], the EC50 worked out at 480 nM and the “GLP-1 receptor action enhancing activity (vs BETP)” value was determined as 53.
Consider `Cc1ccc(S(=O)(=O)Nc2ccc(NC(=O)N[C@H](Cc3ccccc3)C(=O)NCC3CCCC3)cc2)cc1` [Compound 27], for which the EC50 was determined as 1100 nM and the “GLP-1 receptor action enhancing activity (vs BETP)” value came to 23.
The corresponding values for `COC(C)(C)CNC(=O)[C@@H](Cc1ccccc1)NC(=O)Nc1ccc(NS(=O)(=O)c2ccc(C)cc2)cc1` [Compound 9] are 650 nM and 39.
The corresponding values for `CCCCC(CC)CNC(=O)[C@@H](Cc1ccccc1)NC(=O)Nc1ccc(NS(=O)(=O)c2ccc(C(C)(C)C)cc2)cc1` (some centres unmarked) [Compound 36] are 18 nM and 1425.
The corresponding values for `Cc1ccc(S(=O)(=O)Nc2ccc(NC(=O)N[C@H](CC3CCCCC3)C(=O)NC3CCCCCC3)cc2)cc1` [Compound 41] are 76 nM and 333.
Regarding `CCCCC(CC)CNC(=O)[C@@H](Cc1c[nH]c2ccccc12)NC(=O)Nc1ccc(NS(=O)(=O)c2ccc(C(C)(C)C)cc2)cc1F` (stereo partly drawn) [Compound 98, (2R)-2-[[4-[(4-tert-butylphenyl)sulfonylamino]-2-fluoro-phenyl]carbamoylamino]-N-(2-ethylhexyl)-3-(1H-indol-3-yl)propanamide], the EC50 was 72 nM and the “GLP-1 receptor action enhancing activity (vs BETP)” value worked out at 350.
With `CSCCCN(c1ccc(NC(=O)N[C@H](Cc2c[nH]c3ccccc23)C(=O)NC(C)CCCC(C)C)cc1)S(=O)(=O)c1ccc(C(C)(C)C)cc1` (some centres unmarked) [Compound 112], the EC50 worked out at 11 nM and the “GLP-1 receptor action enhancing activity (vs BETP)” value came to 2206.
The corresponding values for `Cc1ccc(S(=O)(=O)Nc2ccc(NC(=S)N[C@H](Cc3ccccc3)C(=O)OC(C)(C)C)cc2)cc1` [Compound 68] are 1200 nM and 22.
The corresponding values for `Cc1ccc(S(=O)(=O)Nc2ccc(NC(=O)N[C@@H](Cc3c[nH]c4ccccc34)C(=O)OC(C)(C)C)cc2)cc1` [Compound 67] are 660 nM and 38.
On to `Cc1ccc(S(=O)(=O)Nc2ccc(N(C)C(=O)N[C@H](Cc3ccccc3)C(=O)OC(C)(C)C)cc2)cc1` [Compound 86], for which the half-maximal effective concentration (EC50) was determined as 430 nM and the “GLP-1 receptor action enhancing activity (vs BETP)” value came to 58.
The corresponding values for `CCCCCCNc1ccc(S(=O)(=O)Nc2cccc(NC(=O)N[C@H](CC3CCCCC3)C(=O)NCC(CC)CCCC)c2)cn1` (some centres unmarked) [Compound 114] are 30 nM and 850.
With `Cc1ccc(S(=O)(=O)Nc2ccc(NC(=O)N[C@H](CC(C)C)C(=O)N[C@H](Cc3ccccc3)c3nc(C(C)(C)C)no3)cc2)cc1` [Compound 89], the EC50 is 260 nM and the “GLP-1 receptor action enhancing activity (vs BETP)” value worked out at 98.
The corresponding values for `Cc1ccc(S(=O)(=O)Nc2ccc(NC(=O)N[C@H](Cc3ccccc3)C(=O)NCC#N)cc2)cc1` [Compound 7] are 50 nM and 505.
Consider `CCCCC(CC)CNC(=O)[C@@H](Cc1ccc(Cl)cc1)NC(=O)Nc1ccc(NS(=O)(=O)c2ccc(C(C)(C)C)cc2)cc1` (stereo partly drawn) [Compound 1, (2R)-2-({4-[(4-tert-butylphenyl)sulfonylamino]phenyl}carbamoylamino)-3-(4-chlorophenyl)-N-(2-ethylhexyl)propanamide], for which the EC50 stood at 4.3 nM.
For `CCCCCCCN(C(=O)N[C@H](Cc1ccccc1)C(=O)OC(C)(C)C)c1ccc(NS(=O)(=O)c2ccc(C)cc2)cc1` [Compound 85, tert-butyl (2R)-2-({heptyl-[4-(p-tolylsulfonylamino)phenyl]carbamoyl}amino)-3-phenyl-propanoate], the EC50 came to 7 nM and the “GLP-1 receptor action enhancing activity (vs BETP)” value worked out at 3578.
The corresponding values for `CCCCCCNc1ccc(S(=O)(=O)Nc2cccc(NC(=O)N[C@H](CC3CCCCC3)C(=O)NCCCSC)c2)cn1` [Compound 113] are 28 nM and 898.
The corresponding values for `CCCC[C@@H](NC(=O)[C@@H](Cc1ccccc1)NC(=O)Nc1ccc(NS(=O)(=O)c2ccc(C)cc2)cc1)C(=O)OC` [Compound 33] are 1500 nM and 17.
The corresponding values for `CCCCC(CC)CNC(=O)[C@@H](Cc1ccccc1)NC(=O)Nc1ccc(NS(=O)(=O)c2ccc(C)cc2)cc1` (some centres unmarked) [Compound 34] are 64 nM and 391.
With `Cc1ccc(S(=O)(=O)Nc2ccc(NC(=O)N[C@H](Cc3ccccc3)C(=O)NC[C@H]3CCC4CC3C4(C)C)cc2)cc1` (some centres unmarked) [Compound 60], the 50% effective concentration (EC50) is 45 nM and the “GLP-1 receptor action enhancing activity (vs BETP)” value worked out at 560.
The corresponding values for `COc1ccc(CNC(=O)[C@@H](Cc2ccccc2)NC(=O)Nc2ccc(NS(=O)(=O)c3ccc(C)cc3)cc2)cc1` [Compound 25] are 1400 nM and 18.
